Laboratory results: ChEMBL document CHEMBL5247669, “Synthesis, modeling, and biological evaluation of anti-tubulin indole-substituted furanones” (Bioorg Med Chem Lett, 2023)
Each block holds one molecule with its values, some of them ahead of it. Calls of active or inactive are those of the source. No cut-off for these calls is given here.

Tests used:
U-937 = assay: Anticancer activity against human U-937 cells assessed as reduction in cell viability by MTT assay; type: functional, cell-based
SK-MEL-28 = assay: Growth inhibition of human SK-MEL-28 cells by MTT assay; type: functional
SK-MEL-5 = assay: Growth inhibition of human SK-MEL-5 cells by MTT assay; type: functional
HCT-116 = assay: Growth inhibition of human HCT-116 cells by MTT assay; type: functional
UO-31 = assay: Growth inhibition of human UO-31 cells by MTT assay; type: functional
NCI/ADR-RES = assay: Growth inhibition of human NCI/ADR-RES cells by MTT assay; type: functional
HL-60 = assay: Growth inhibition of human HL-60 cells by MTT assay; type: functional
SF-295 = assay: Growth inhibition of human SF-295 cells by MTT assay; type: functional
SF-268 = assay: Growth inhibition of human SF-268 cells by MTT assay; type: functional
M14 = assay: Growth inhibition of human M14 cells by MTT assay; type: functional
ACHN = assay: Growth inhibition of human ACHN cells by MTT assay; type: functional
SK-OV-3 = assay: Growth inhibition of human SK-OV-3 cells by MTT assay; type: functional
SR = assay: Growth inhibition of human SR cells by MTT assay; type: functional
MDA-MB-435 = assay: Growth inhibition of human MDA-MB-435 cells by MTT assay; type: functional
TK-10 = assay: Growth inhibition of human TK-10 cells by MTT assay; type: functional
NCI-H226 = assay: Growth inhibition of human NCI-H226 cells by MTT assay; type: functional
SNB-75 = assay: Growth inhibition of human SNB-75 cells by MTT assay; type: functional
K562 = assay: Growth inhibition of human K562 cells by MTT assay; type: functional
Hs-578T = assay: Growth inhibition of human Hs-578T cells by MTT assay; type: functional
UACC-62 = assay: Growth inhibition of human UACC-62 cells by MTT assay; type: functional
OVCAR-8 = assay: Growth inhibition of human OVCAR-8 cells by MTT assay; type: functional
LOX IMVI = assay: Growth inhibition of human LOX IMVI cells by MTT assay; type: functional
NCI-H23 = assay: Growth inhibition of human NCI-H23 cells by MTT assay; type: functional
RXF 393 = assay: Growth inhibition of human RXF 393 cells by MTT assay; type: functional
A549 = assay: Growth inhibition of human A549 cells by MTT assay; type: functional
SN12C = assay: Growth inhibition of human SN12C cells by MTT assay; type: functional
IGROV-1 = assay: Growth inhibition of human IGROV-1 cells by MTT assay; type: functional, cell-based
Tubulin (Homo sapiens) = Tubulin (Homo sapiens) (UniProt P68371+Q9H4B7+P0DPH7+P68366+Q13509+Q71U36+P04350+Q3ZCM7+P07437+P68363+Q9BQE3+Q6PEY2+Q13885+Q9BVA1+Q9BUF5); assay: Inhibition of tubulin polymerization (unknown origin) at 10 uM; type: protein-complex assay
SF-539 = assay: Growth inhibition of human SF-539 cells by MTT assay; type: functional
HOP-92 = assay: Growth inhibition of human HOP-92 cells by MTT assay; type: functional
EKVX = assay: Growth inhibition of human EKVX cells by MTT assay; type: functional
KM12 = assay: Growth inhibition of human KM12 cells by MTT assay; type: functional
SW-620 = assay: Growth inhibition of human SW-620 cells by MTT assay; type: functional
BT-549 = assay: Growth inhibition of human BT-549 cells by MTT assay; type: functional
U-251 = assay: Growth inhibition of human U-251 cells by MTT assay; type: functional
HOP-62 = assay: Growth inhibition of human HOP-62 cells by MTT assay; type: functional
HCC 2998 = assay: Growth inhibition of human HCC 2998 cells by MTT assay; type: functional
NCI-H460 = assay: Growth inhibition of human NCI-H460 cells by MTT assay; type: functional
OVCAR-5 = assay: Growth inhibition of human OVCAR-5 cells by MTT assay; type: functional
NCI-H322M = assay: Growth inhibition of human NCI-H322M cells by MTT assay; type: functional
OVCAR-3 = assay: Growth inhibition of human OVCAR-3 cells by MTT assay; type: functional
PC-3 = assay: Growth inhibition of human PC-3 cells by MTT assay; type: functional
T47D = assay: Growth inhibition of human T47D cells by MTT assay; type: functional
MOLT-4 = assay: Growth inhibition of human MOLT-4 cells by MTT assay; type: functional
A498 = assay: Growth inhibition of human A498 cells by MTT assay; type: functional
HCT-15 = assay: Growth inhibition of human HCT-15 cells by MTT assay; type: functional
OVCAR-4 = assay: Growth inhibition of human OVCAR-4 cells by MTT assay; type: functional
COLO 205 = assay: Growth inhibition of human COLO 205 cells by MTT assay; type: functional
786-0 = assay: Growth inhibition of human 786-0 cells by MTT assay; type: functional
MDA-MB-468 = assay: Growth inhibition of human MDA-MB-468 cells by MTT assay; type: functional
CCRF-CEM = assay: Growth inhibition of human CCRF-CEM cells by MTT assay; type: functional
MDA-MB-231 = assay: Growth inhibition of human MDA-MB-231 cells by MTT assay; type: functional
UACC-257 = assay: Growth inhibition of human UACC-257 cells by MTT assay; type: functional
CAKI-1 = assay: Growth inhibition of human CAKI-1 cells by MTT assay; type: functional
NCI-H522 = assay: Growth inhibition of human NCI-H522 cells by MTT assay; type: functional
SNB-19 = assay: Growth inhibition of human SNB-19 cells by MTT assay; type: functional
DU-145 = assay: Growth inhibition of human DU-145 cells by MTT assay; type: functional
MCF7 = assay: Growth inhibition of human MCF7 cells by MTT assay; type: functional
RPMI-8226 = assay: Growth inhibition of human RPMI-8226 cells by MTT assay; type: functional
HT-29 = assay: Growth inhibition of human HT-29 cells by MTT assay; type: functional
SK-MEL-2 = assay: Growth inhibition of human SK-MEL-2 cells by MTT assay; type: functional
Malme-3M = assay: Growth inhibition of human Malme-3M cells by MTT assay; type: functional

SMILES: Cc1cccc(C2=C(c3cn(C)c4ccccc34)COC2=O)c1
EC50 (U-937): > 10 µM

SMILES: Cc1ccc(C2=C(c3cn(C)c4ccccc34)COC2=O)cc1
EC50 (U-937): > 10 µM

SMILES: COc1ccc(C2=C(c3cn(C)c4ccccc34)COC2=O)cc1
EC50 (U-937): > 10 µM

SMILES: COc1ccccc1C1=C(c2cn(C)c3ccccc23)COC1=O
EC50 (U-937): > 10 µM

SMILES: Cn1cc(C2=C(c3ccccc3)C(=O)OC2)c2ccccc21
EC50 (U-937): > 10 µM

SMILES: COc1cccc(C2=C(c3cn(C)c4ccccc34)COC2=O)c1
EC50 (U-937): > 10 µM

Continued, in another order:

EC50 (U-937): 3.2 µM
SMILES: COc1ccc(OC)c(C2=C(c3cn(C)c4ccccc34)COC2=O)c1

EC50 (U-937): > 10 µM
SMILES: COc1ccc(C2=C(c3cn(C)c4ccccc34)COC2=O)cc1OC

GI50 (SK-MEL-28): 427 nM
GI50 (SK-MEL-5): 78 nM
GI50 (HCT-116): 40 nM
GI50 (HL-60): 43 nM
GI50 (ACHN): 537 nM
GI50 (SK-OV-3): 269 nM
EC50 (U-937): 0.6 µM
GI50 (MDA-MB-435): 25 nM
GI50 (NCI-H226): 692 nM
GI50 (K562): 37 nM
GI50 (OVCAR-8): 339 nM
GI50 (NCI-H23): 234 nM
GI50 (A549): 100 nM
inhibition (Tubulin (Homo sapiens)): Active
GI50 (SW-620): 45 nM
GI50 (BT-549): 62 nM
GI50 (U-251): 72 nM
GI50 (HCC 2998): 219 nM
GI50 (NCI-H460): 54 nM
GI50 (OVCAR-5): 479 nM
GI50 (NCI-H322M): 407 nM
GI50 (OVCAR-3): 36 nM
GI50 (PC-3): 102 nM
GI50 (T47D): 60 nM
GI50 (MOLT-4): 55 nM
GI50 (HCT-15): 43 nM
GI50 (OVCAR-4): 1260 nM
GI50 (COLO 205): 65 nM
GI50 (786-0): 316 nM
GI50 (MDA-MB-468): 32 nM
GI50 (CCRF-CEM): 59 nM
GI50 (MDA-MB-231): 339 nM
GI50 (NCI-H522): 49 nM
GI50 (DU-145): 209 nM
GI50 (MCF7): 28 nM
GI50 (RPMI-8226): 110 nM
GI50 (HT-29): 38 nM
GI50 (SK-MEL-2): 229 nM
SMILES: COc1cc(C2=C(c3cn(C)c4ccccc34)COC2=O)cc(OC)c1OC
GI50 (UO-31): 186 nM
GI50 (NCI/ADR-RES): 47 nM
GI50 (SF-295): 40 nM
GI50 (SF-268): 813 nM
GI50 (M14): 37 nM
GI50 (SR): 22 nM
GI50 (TK-10): 933 nM
GI50 (SNB-75): 44 nM
GI50 (Hs-578T): 158 nM
GI50 (UACC-62): 54 nM
GI50 (LOX IMVI): 66 nM
GI50 (RXF 393): 132 nM
GI50 (SN12C): 282 nM
IC50 (IGROV-1): 76 nM
GI50 (SF-539): 105 nM
GI50 (HOP-92): 251 nM
GI50 (EKVX): 151 nM
GI50 (KM12): 65 nM
GI50 (HOP-62): 123 nM
GI50 (A498): 17 nM
GI50 (UACC-257): 1620 nM
GI50 (CAKI-1): 52 nM
GI50 (SNB-19): 158 nM
GI50 (Malme-3M): 195 nM
